Source: patent USRE48461E1, “Modulation of androgen receptor expression” (Ionis Pharmaceuticals, Inc., priority 2012, dated 2021)
Oligonucleotides are written 5' to 3', each unit as a sugar letter and its base; * is a phosphorothioate linkage, no mark a phosphodiester; rarer units and linkages stand in square brackets, end groups in braces. Plain capitals give the bases only. k = constrained ethyl (cEt); [5mC] = 5-methylcytosine; d = 2'-deoxy (DNA)

Tests used:
AR mRNA [1] = assay: Antisense inhibition of human AR in HuVEC cells, single concentration (electroporation, qRT-PCR RTS3559); type: cell-based; settings: electroporation, approximately 24 hours, relative to untreated control
Method in brief: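 AR mRNA levels were measured with human primer-probe set RTS3559 and adjusted for total RNA (RIBOGREEN). Cells were HuVEC, with each antisense oligonucleotide delivered by electroporation at one concentration.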

AR mRNA [2] = assay: Dose-dependent antisense inhibition of human AR in HuVEC cells (electroporation, qRT-PCR RTS3559, IC50); type: cell-based; settings: HuVEC, electroporation, approximately 16 hours
Method in brief: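 HuVEC cells dosed with antisense oligonucleotides by electroporation and treated approximately 16 hours. AR mRNA quantified by real-time qPCR with primer probe set RTS3559 and normalised to total RNA by RIBOGREEN; IC50 from dose-response.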

[3] = Table 21, 500 nM oligonucleotide
[4] = Table 22, 500 nM oligonucleotide
[5] = Table 23, 500 nM oligonucleotide
[6] = Table 24, 1,000 nM oligonucleotide

Substance	percent inhibition of AR, 46.9 nM (AR mRNA [2]; Table 34)	percent inhibition of AR, 187.5 nM (AR mRNA [2]; Table 34)	percent inhibition of AR, 750.0 nM (AR mRNA [2]; Table 34)	percent inhibition of AR, 3000.0 nM (AR mRNA [2]; Table 34)	IC50 (AR mRNA [2]; Table 34)	% inhibition (AR mRNA [1]; [4])	further results
583922 (kA*kG*kT*dT*dG*dT*dA*dG*dT*dA*dG*dT*d[5mC]*kG*k[5mC]*kG; antisense) [compound 583922]	16%	43%	76%	92%	230 nM	–	% inhibition (AR mRNA [1]; [3]): 37%
583932 (kT*k[5mC]*kT*d[5mC]*d[5mC]*dA*dG*d[5mC]*dT*dT*dG*dA*dT*kG*k[5mC]*kG; antisense) [compound 583932]	9%	35%	64%	81%	380 nM	–	% inhibition (AR mRNA [1]; [3]): 39%
583933 (k[5mC]*kA*kG*d[5mC]*dG*dG*dG*dT*dT*d[5mC]*dT*d[5mC]*d[5mC]*kA*kG*k[5mC]; antisense) [compound 583933]	22%	25%	56%	81%	410 nM	–	% inhibition (AR mRNA [1]; [3]): 38%
583969 (k[5mC]*k[5mC]*kT*dT*d[5mC]*dT*dT*d[5mC]*dG*dG*d[5mC]*dT*dG*kT*kG*kA; antisense) [compound 583969]	–	–	–	–	–	–	% inhibition (AR mRNA [1]; [3]): 44%; percent inhibition of AR, 46.9 nM (AR mRNA [2]; Table 33): 12%; percent inhibition of AR, 187.5 nM (AR mRNA [2]; Table 33): 26%; percent inhibition of AR, 750.0 nM (AR mRNA [2]; Table 33): 66%; percent inhibition of AR, 3000.0 nM (AR mRNA [2]; Table 33): 86%; IC50 (AR mRNA [2]; Table 33): 440 nM
583990 (kA*k[5mC]*kA*d[5mC]*dA*dT*d[5mC]*dA*dG*dG*dT*dG*d[5mC]*kG*kG*kT; antisense) [compound 583990]	0%	9%	33%	56%	1920 nM	30%	–
583996 (k[5mC]*kG*k[5mC]*d[5mC]*dA*dG*dG*dG*dT*dA*d[5mC]*d[5mC]*dA*k[5mC]*kA*k[5mC]; antisense) [compound 583996]	26%	12%	50%	70%	710 nM	33%	–
583998 (k[5mC]*kA*kT*dG*d[5mC]*d[5mC]*dG*d[5mC]*d[5mC]*dA*dG*dG*dG*kT*kA*k[5mC]; antisense) [compound 583998]	4%	25%	38%	70%	890 nM	45%	–
583999 (kA*k[5mC]*k[5mC]*dA*dT*dG*d[5mC]*d[5mC]*dG*d[5mC]*d[5mC]*dA*dG*kG*kG*kT; antisense) [compound 583999]	13%	12%	30%	64%	1530 nM	29%	–
584002 (k[5mC]*kT*kG*d[5mC]*dT*d[5mC]*dA*d[5mC]*d[5mC]*dA*dT*dG*d[5mC]*k[5mC]*kG*k[5mC]; antisense) [compound 584002]	12%	46%	70%	92%	250 nM	30%	–
584006 (kA*k[5mC]*kA*d[5mC]*dA*dA*dG*dT*dG*dG*dG*dA*d[5mC]*kT*kG*kG; antisense) [compound 584006]	21%	26%	59%	88%	350 nM	33%	–
584044 (k[5mC]*k[5mC]*k[5mC]*dT*dT*d[5mC]*dA*dG*d[5mC]*dG*dG*d[5mC]*dT*k[5mC]*kT*kT; antisense) [compound 584044]	23%	30%	51%	78%	440 nM	29%	–
584069 (k[5mC]*kA*kG*dA*dG*dT*d[5mC]*dA*dT*d[5mC]*d[5mC]*d[5mC]*dT*kG*k[5mC]*kT; antisense) [compound 584069]	18%	40%	63%	82%	300 nM	–	% inhibition (AR mRNA [1]; [5]): 36%
584111 (kG*kT*kT*dT*dT*d[5mC]*dA*dA*dA*dT*dG*d[5mC]*dA*kG*k[5mC]*k[5mC]; antisense) [compound 584111]	–	–	–	–	–	–	% inhibition (AR mRNA [1]; [5]): 33%; percent inhibition of AR, 46.9 nM (AR mRNA [2]; Table 35): 22%; percent inhibition of AR, 187.5 nM (AR mRNA [2]; Table 35): 30%; percent inhibition of AR, 750.0 nM (AR mRNA [2]; Table 35): 59%; percent inhibition of AR, 3000.0 nM (AR mRNA [2]; Table 35): 84%; IC50 (AR mRNA [2]; Table 35): 330 nM
584125 (kG*k[5mC]*k[5mC]*dA*dT*dG*dA*dG*dA*d[5mC]*dA*dG*d[5mC]*kT*kT*kT; antisense) [compound 584125]	12%	12%	47%	76%	720 nM	–	% inhibition (AR mRNA [1]; [5]): 35%
584128 (kA*kT*kT*d[5mC]*dT*dT*dG*dA*d[5mC]*dT*dG*dT*d[5mC]*kT*kG*kA; antisense) [compound 584128]	20%	22%	41%	72%	740 nM	–	% inhibition (AR mRNA [1]; [5]): 38%
584138 (k[5mC]*kG*k[5mC]*dG*d[5mC]*dA*dG*dG*dT*dA*dG*dG*dA*kG*k[5mC]*k[5mC]; antisense) [compound 584138]	–	–	–	–	–	–	% inhibition (AR mRNA [1]; [5]): 35%; percent inhibition of AR, 46.9 nM (AR mRNA [2]; Table 35): 2%; percent inhibition of AR, 187.5 nM (AR mRNA [2]; Table 35): 40%; percent inhibition of AR, 750.0 nM (AR mRNA [2]; Table 35): 62%; percent inhibition of AR, 3000.0 nM (AR mRNA [2]; Table 35): 89%; IC50 (AR mRNA [2]; Table 35): 370 nM
584139 (kT*k[5mC]*kT*dA*dA*dA*d[5mC]*dA*dT*dG*dA*d[5mC]*dG*kG*kT*kT; antisense) [compound 584139]	13%	33%	56%	85%	400 nM	–	% inhibition (AR mRNA [1]; [5]): 37%
584145 (kA*kT*kG*dG*dG*dA*dG*dT*dA*dA*d[5mC]*dT*dT*kT*kT*kG; antisense) [compound 584145]	–	–	–	–	–	–	% inhibition (AR mRNA [1]; [6]): 76%; percent inhibition of AR, 46.9 nM (AR mRNA [2]; Table 35): 6%; percent inhibition of AR, 187.5 nM (AR mRNA [2]; Table 35): 32%; percent inhibition of AR, 750.0 nM (AR mRNA [2]; Table 35): 63%; percent inhibition of AR, 3000.0 nM (AR mRNA [2]; Table 35): 88%; IC50 (AR mRNA [2]; Table 35): 360 nM
584148 (k[5mC]*kA*kT*dA*dT*dT*dA*dT*dT*dG*dT*dG*d[5mC]*kT*kG*k[5mC]; antisense) [compound 584148]	–	–	–	–	–	–	% inhibition (AR mRNA [1]; [6]): 85%; percent inhibition of AR, 46.9 nM (AR mRNA [2]; Table 35): 16%; percent inhibition of AR, 187.5 nM (AR mRNA [2]; Table 35): 48%; percent inhibition of AR, 750.0 nM (AR mRNA [2]; Table 35): 79%; percent inhibition of AR, 3000.0 nM (AR mRNA [2]; Table 35): 95%; IC50 (AR mRNA [2]; Table 35): 200 nM
584152 (kG*kA*kG*dT*dT*dG*dT*dG*dA*dT*dT*dT*d[5mC]*kA*kG*kG; antisense) [compound 584152]	–	–	–	–	–	–	% inhibition (AR mRNA [1]; [6]): 88%; percent inhibition of AR, 46.9 nM (AR mRNA [2]; Table 35): 28%; percent inhibition of AR, 187.5 nM (AR mRNA [2]; Table 35): 59%; percent inhibition of AR, 750.0 nM (AR mRNA [2]; Table 35): 87%; percent inhibition of AR, 3000.0 nM (AR mRNA [2]; Table 35): 95%; IC50 (AR mRNA [2]; Table 35): 110 nM
584157 (kT*kT*kG*dA*dT*dG*dG*dA*dA*dT*dG*d[5mC]*dT*kG*kA*kT; antisense) [compound 584157]	–	–	–	–	–	–	% inhibition (AR mRNA [1]; [6]): 69%; percent inhibition of AR, 46.9 nM (AR mRNA [2]; Table 36): 6%; percent inhibition of AR, 187.5 nM (AR mRNA [2]; Table 36): 6%; percent inhibition of AR, 750.0 nM (AR mRNA [2]; Table 36): 52%; percent inhibition of AR, 3000.0 nM (AR mRNA [2]; Table 36): 82%; IC50 (AR mRNA [2]; Table 36): 590 nM
584158 (kG*kG*kT*dT*dA*dA*d[5mC]*dT*dT*dT*d[5mC]*dT*d[5mC]*kT*kG*kA; antisense) [compound 584158]	–	–	–	–	–	–	% inhibition (AR mRNA [1]; [6]): 69%; percent inhibition of AR, 46.9 nM (AR mRNA [2]; Table 36): 14%; percent inhibition of AR, 187.5 nM (AR mRNA [2]; Table 36): 37%; percent inhibition of AR, 750.0 nM (AR mRNA [2]; Table 36): 70%; percent inhibition of AR, 3000.0 nM (AR mRNA [2]; Table 36): 89%; IC50 (AR mRNA [2]; Table 36): 260 nM
584162 (kT*kG*kG*dA*dT*dT*dG*dT*dA*dA*dA*dT*dT*kA*k[5mC]*kG; antisense) [compound 584162]	–	–	–	–	–	–	% inhibition (AR mRNA [1]; [6]): 82%; percent inhibition of AR, 46.9 nM (AR mRNA [2]; Table 35): 24%; percent inhibition of AR, 187.5 nM (AR mRNA [2]; Table 35): 45%; percent inhibition of AR, 750.0 nM (AR mRNA [2]; Table 35): 80%; percent inhibition of AR, 3000.0 nM (AR mRNA [2]; Table 35): 92%; IC50 (AR mRNA [2]; Table 35): 180 nM
